The EC50 is the concentration giving half of the maximal effect. A high value points to weaker potency.

Here are results for six molecules from patent publication US20260001928A1 (CORTERIA PHARMACEUTICALS, priority 2022, published 2026).

The test system of this experiment is human LAD2 cells. Type of experiment: cell-based. The protocol: LAD2 cells (20000 cells/well, 96-well plates and 10,000 cells/well in 384-well plates) were incubated with compounds for 30 min. The R-hexosaminidase released into the supernatants and in cell lysates was quantified using the fluorogenic substrate 4-methylumbelliferyl-N-acetyl-b-D-glucosaminide.
On the day of the assay, the lyophilized peptides were dissolved in DMSO and/or PBS 1× pH 7.4, to obtain stock solutions. The stock solutions were used to prepare working serial dilutions to have final concentrations in assay ranging from 50, 100 or 300 to 0.1 or 0.001 μM. Each peptide was tested in biological duplicates. When compounds were dissolved in DMSO, the final solvent concentration in assay was 0.5% (v/v).
The percentage of degranulation, expressed as % of R-hexosaminidase release, was calculated by dividing the fluorescence signal of the supernatant by the sum of the signals from the supernatant and cell pellet (lysed with Triton X-100, final 1%) and multiplying by 100.
Dose-response curves were generated by plotting the % of R-hexosaminidase release versus total release of cells treated with triton (y-axis) against the concentrations of peptides tested (x-axis). The Mast Cell Degranulation (MCD) EC50 values and standard errors were calculated using XLfit 5.5.0.5 based on the following equation:
4 Parameter Sigmoidal Model: f=(A+((B−A)/(1+((C/x)^D))))
where A=Emin, B=Emax, C=EC50 and D=slope

*1 amine or outer side, *2 acyl side, *3 side chain or, on linkers, in order; H or OH if unused. Where a SMILES comes first, the peptide text is derived from it. Side-chain parts run from the residue outwards. [ ]: non-standard residue; d: D form. The star is where a group is joined. C20 diacid = O=C(O)CCCCCCCCCCCCCCCCCCC(=O)*; C16 diacid = O=C(O)CCCCCCCCCCCCCCC(=O)*; γGlu = O=C(O)[C@H](CCC(=O)[*:2])N[*:1]; NMeI = CC[C@H](C)[C@H](NC)C(=O)O; Pentanoyl = CCCCC(=O)*; AEEA = NCCOCCOCC(=O)O; Aib = CC(C)(N)C(=O)O

In turn, `CC[C@H](C)[C@H](NC(C)=O)C(=O)N[C@H](C(=O)N[C@@H](CC(C)C)C(=O)N[C@@H](CO)C(=O)N[C@@H](CC(C)C)C(=O)N[C@@H](CC(=O)O)C(=O)N[C@@H](C(=O)N1CCC[C@H]1C(=O)N[C@H](C(=O)N[C@@H](CCCCN)C(=O)N[C@@H](CC(C)C)C(=O)N[C@@H](CCCCNC(=O)CC[C@H](NC(=O)CCCCCCCCCCCCCCCCCCC(=O)O)C(=O)O)C(=O)N[C@@H](CCCCN)C(=O)N[C@H](C(=O)N[C@@H](CC(C)C)C(=O)N[C@@H](CC(C)C)C(=O)N[C@@H](CCC(=O)O)C(=O)N[C@@H](CCC(N)=O)C(=O)N[C@@H](CCC(=O)O)C(=O)N[C@@H](CCCCN)C(=O)N[C@@H](CCC(N)=O)C(=O)N[C@@H](CCCCN)C(=O)N[C@@H](CCC(=O)O)C(=O)N[C@@H](CCC(N)=O)C(=O)N[C@@H](CCCNC(=N)N)C(=O)N[C@@H](CCC(=O)O)C(=O)N[C@@H](CCC(N)=O)C(=O)N[C@@H](C)C(=O)N[C@@H](CCC(=O)O)C(=O)N[C@H](C(=O)N[C@@H](CC(N)=O)C(=O)NC(C)(C)C(=O)N[C@@H](CCC(N)=O)C(=O)N[C@H](C(=O)N[C@@H](CC(C)C)C(=O)N[C@@H](C)C(=O)N[C@@H](CCC(N)=O)C(=O)N[C@H](C(N)=O)C(C)C)[C@@H](C)CC)[C@@H](C)O)[C@@H](C)CC)[C@@H](C)CC)C(C)C)C(C)C` [Cmpd 213] (Ac-IVLSLD[dV]PIKLK([γGlu-C20 diacid])KILLEQEKQKEQREQAETN[Aib]QILAQV-NH2) gave an EC50 greater than 300 µM. For `CC[C@H](C)[C@H](NC(C)=O)C(=O)N[C@H](C(=O)N[C@@H](CC(C)C)C(=O)N[C@@H](CO)C(=O)N[C@@H](CC(C)C)C(=O)N[C@@H](CC(=O)O)C(=O)N[C@@H](C(=O)N1CCC[C@H]1C(=O)N[C@H](C(=O)N[C@@H](CCCCN)C(=O)N[C@@H](CC(C)C)C(=O)N[C@@H](CCCCNC(=O)CC[C@H](NC(=O)CC[C@H](NC(=O)CCCCCCCCCCCCCCCCCCC(=O)O)C(=O)O)C(=O)O)C(=O)N[C@@H](CCCCN)C(=O)N[C@H](C(=O)N[C@@H](CC(C)C)C(=O)N[C@@H](CC(C)C)C(=O)N[C@@H](CCC(=O)O)C(=O)N[C@@H](CCC(N)=O)C(=O)N[C@@H](CCC(=O)O)C(=O)N[C@@H](CCCCN)C(=O)N[C@@H](CCC(N)=O)C(=O)N[C@@H](CCCCN)C(=O)N[C@@H](CCCCN)C(=O)N[C@@H](CCC(N)=O)C(=O)N[C@@H](CCCNC(=N)N)C(=O)N[C@@H](CCC(=O)O)C(=O)N[C@@H](CCC(N)=O)C(=O)N[C@@H](C)C(=O)N[C@@H](CCC(=O)O)C(=O)N[C@H](C(=O)N[C@@H](CC(N)=O)C(=O)NC(C)(C)C(=O)N[C@@H](CCC(N)=O)C(=O)N[C@H](C(=O)N[C@@H](CC(C)C)C(=O)N[C@@H](C)C(=O)N[C@@H](CCC(N)=O)C(=O)N[C@H](C(N)=O)C(C)C)[C@@H](C)CC)[C@@H](C)O)[C@@H](C)CC)[C@@H](C)CC)C(C)C)C(C)C` [Cmpd 243] (Ac-IVLSLD[dV]PIKLK([γGlu-γGlu-C20 diacid])KILLEQEKQKKQREQAETN[Aib]QILAQV-NH2), the EC50 is greater than 300 µM. `CCCCC(=O)N[C@H](C(=O)N[C@@H](CC(C)C)C(=O)N[C@@H](CO)C(=O)N[C@@H](CC(C)C)C(=O)N[C@@H](CC(=O)O)C(=O)N[C@@H](C(=O)N1CCC[C@H]1C(=O)N[C@H](C(=O)N[C@@H](CCCCN)C(=O)N[C@@H](CC(C)C)C(=O)N[C@@H](CCCCNC(=O)CC[C@H](NC(=O)CCCCCCCCCCCCCCCCCCC(=O)O)C(=O)O)C(=O)N[C@@H](CCCCN)C(=O)N[C@H](C(=O)N[C@@H](CC(C)C)C(=O)N[C@@H](CC(C)C)C(=O)N[C@@H](CCC(=O)O)C(=O)N[C@@H](CCC(N)=O)C(=O)N[C@@H](CCC(=O)O)C(=O)N[C@@H](CCCCN)C(=O)N[C@@H](CCC(N)=O)C(=O)N[C@@H](CCCCN)C(=O)N[C@@H](CCCCN)C(=O)N[C@@H](CCC(N)=O)C(=O)N[C@@H](CCCNC(=N)N)C(=O)N[C@@H](CCC(=O)O)C(=O)N[C@@H](CCC(N)=O)C(=O)N[C@@H](C)C(=O)N[C@@H](CCC(=O)O)C(=O)N[C@H](C(=O)N[C@@H](CC(N)=O)C(=O)NC(C)(C)C(=O)N[C@@H](CCC(N)=O)C(=O)N[C@H](C(=O)N[C@@H](CC(C)C)C(=O)N[C@@H](C)C(=O)N[C@@H](CCC(N)=O)C(=O)N[C@H](C(N)=O)C(C)C)[C@@H](C)CC)[C@@H](C)O)[C@@H](C)CC)[C@@H](C)CC)C(C)C)C(C)C` [Cmpd 219] (Pentanoyl-VLSLD[dV]PIKLK([γGlu-C20 diacid])KILLEQEKQKKQREQAETN[Aib]QILAQV-NH2) registered a concentration for a half-maximal effect (EC50) of 88.2 µM. Molecule `CC[C@H](C)[C@H](NC)C(=O)N[C@H](C(=O)N[C@@H](CC(C)C)C(=O)N[C@@H](CO)C(=O)N[C@@H](CC(C)C)C(=O)N[C@@H](CC(=O)O)C(=O)N[C@@H](C(=O)N1CCC[C@H]1C(=O)N[C@H](C(=O)N[C@@H](CCCCN)C(=O)N[C@@H](CC(C)C)C(=O)N[C@@H](CCCCNC(=O)COCCOCCNC(=O)COCCOCCNC(=O)CC[C@H](NC(=O)CCCCCCCCCCCCCCCCCCC(=O)O)C(=O)O)C(=O)N[C@@H](CCCCN)C(=O)N[C@H](C(=O)N[C@@H](CC(C)C)C(=O)N[C@@H](CC(C)C)C(=O)N[C@@H](CCC(=O)O)C(=O)N[C@@H](CCC(N)=O)C(=O)N[C@@H](CCC(=O)O)C(=O)N[C@@H](CCCCN)C(=O)N[C@@H](CCC(N)=O)C(=O)N[C@@H](CCCCN)C(=O)N[C@@H](CCC(=O)O)C(=O)N[C@@H](CCC(N)=O)C(=O)N[C@@H](CCCNC(=N)N)C(=O)N[C@@H](CCC(=O)O)C(=O)N[C@@H](CCC(N)=O)C(=O)N[C@@H](C)C(=O)N[C@@H](CCC(=O)O)C(=O)N[C@H](C(=O)N[C@@H](CC(N)=O)C(=O)NC(C)(C)C(=O)N[C@@H](CCC(N)=O)C(=O)N[C@H](C(=O)N[C@@H](CC(C)C)C(=O)N[C@@H](C)C(=O)N[C@@H](CCC(N)=O)C(=O)N[C@H](C(N)=O)C(C)C)[C@@H](C)CC)[C@@H](C)O)[C@@H](C)CC)[C@@H](C)CC)C(C)C)C(C)C` [Cmpd 237] (H-[NMeI]VLSLD[dV]PIKLK([AEEA-AEEA-γGlu-C20 diacid])KILLEQEKQKEQREQAETN[Aib]QILAQV-NH2) registered a half-maximal effective concentration (EC50) greater than 300 µM. In the case of `CC[C@H](C)[C@H](NC(C)=O)C(=O)N[C@H](C(=O)N[C@@H](CC(C)C)C(=O)N[C@@H](CO)C(=O)N[C@@H](CC(C)C)C(=O)N[C@@H](CC(=O)O)C(=O)N[C@@H](C(=O)N1CCC[C@H]1C(=O)N[C@H](C(=O)N[C@@H](CCCCN)C(=O)N[C@@H](CC(C)C)C(=O)N[C@@H](CCCCNC(=O)CC[C@H](NC(=O)CCCCCCCCCCCCCCC(=O)O)C(=O)O)C(=O)N[C@@H](CCCCN)C(=O)N[C@H](C(=O)N[C@@H](CC(C)C)C(=O)N[C@@H](CC(C)C)C(=O)N[C@@H](CCC(=O)O)C(=O)N[C@@H](CCC(N)=O)C(=O)N[C@@H](CCC(=O)O)C(=O)N[C@@H](CCCCN)C(=O)N[C@@H](CCC(N)=O)C(=O)N[C@@H](C)C(=O)N[C@@H](CCCCN)C(=O)N[C@@H](CCC(N)=O)C(=O)N[C@@H](CCCNC(=N)N)C(=O)N[C@@H](CCC(=O)O)C(=O)N[C@@H](CCC(N)=O)C(=O)N[C@@H](C)C(=O)N[C@@H](CCC(=O)O)C(=O)N[C@H](C(=O)N[C@@H](CC(N)=O)C(=O)NC(C)(C)C(=O)N[C@@H](CCC(N)=O)C(=O)N[C@H](C(=O)N[C@@H](CC(C)C)C(=O)N[C@@H](C)C(=O)N[C@@H](CCC(N)=O)C(=O)N[C@H](C(N)=O)C(C)C)[C@@H](C)CC)[C@@H](C)O)[C@@H](C)CC)[C@@H](C)CC)C(C)C)C(C)C` [Cmpd 166] (Ac-IVLSLD[dV]PIKLK([γGlu-C16 diacid])KILLEQEKQAKQREQAETN[Aib]QILAQV-NH2), the EC50 is greater than 100 µM. On to `CC[C@H](C)[C@H](NC)C(=O)N[C@H](C(=O)N[C@@H](CC(C)C)C(=O)N[C@@H](CO)C(=O)N[C@@H](CC(C)C)C(=O)N[C@@H](CC(=O)O)C(=O)N[C@@H](C(=O)N1CCC[C@H]1C(=O)N[C@H](C(=O)N[C@@H](CCCCN)C(=O)N[C@@H](CC(C)C)C(=O)N[C@@H](CCCCNC(=O)CC[C@H](NC(=O)CC[C@H](NC(=O)CCCCCCCCCCCCCCCCCCC(=O)O)C(=O)O)C(=O)O)C(=O)N[C@@H](CCCCN)C(=O)N[C@H](C(=O)N[C@@H](CC(C)C)C(=O)N[C@@H](CC(C)C)C(=O)N[C@@H](CCC(=O)O)C(=O)N[C@@H](CCC(N)=O)C(=O)N[C@@H](CCC(=O)O)C(=O)N[C@@H](CCCCN)C(=O)N[C@@H](CCC(N)=O)C(=O)N[C@@H](CCCCN)C(=O)N[C@@H](CCC(=O)O)C(=O)N[C@@H](CCC(N)=O)C(=O)N[C@@H](CCCNC(=N)N)C(=O)N[C@@H](CCC(=O)O)C(=O)N[C@@H](CCC(N)=O)C(=O)N[C@@H](C)C(=O)N[C@@H](CCC(=O)O)C(=O)N[C@H](C(=O)N[C@@H](CC(N)=O)C(=O)NC(C)(C)C(=O)N[C@@H](CCC(N)=O)C(=O)N[C@H](C(=O)N[C@@H](CC(C)C)C(=O)N[C@@H](C)C(=O)N[C@@H](CCC(N)=O)C(=O)N[C@H](C(N)=O)C(C)C)[C@@H](C)CC)[C@@H](C)O)[C@@H](C)CC)[C@@H](C)CC)C(C)C)C(C)C` [Cmpd 242] (H-[NMeI]VLSLD[dV]PIKLK([γGlu-γGlu-C20 diacid])KILLEQEKQKEQREQAETN[Aib]QILAQV-NH2), for which the EC50 is greater than 300 µM.
